This is an account of results in patent EP2717057A1, “Morphine-6-glucuronide derivatives, immunogens and immunoassay” (Cisbio Bioassays, priority 2012, dated 2014).

Molecules are shown by their SMILES.

For the test, the target named is rabbit anti-M6G polyclonal antibody. Kind of test: Cross-reactivity of the competitive M6G-ELISA (M6G-HRP tracer, biotinylated antibody). The conditions noted are these: for Kd: approximate, calculated from Figure 1, competing compound diluted in NBCS at 1, 10, 100 or 1000 nM, one site competition model, read-out: affinity constant K; for K relative to M6G (X as high as M6G): ratio of the compound's K to the K of M6G. It counts as binding. As for the experimental part:
The rabbit anti-M6G polyclonal antibody was biotinylated for the ELISA assay. After dialysis in buffer carbonate 100 mM pH 9, biotin-NHS dissolved in DMF was added to the antibody. After stirring for 30 min, the free biotin was removed by dialysis in PBS 11 mM pH 7.2. Aliquots of labeled antibody were frozen and stored at -20°C. Then, the biotinylated antibody was diluted at ELISA working concentration determined at 0.25µg.mL^-1 in PBS 11 mM pH 7.2 + 1% BSA, aliquoted and stored at -20°C.
96-well microplates were coated with 200 µL/well of a 10 µg.mL^-1 BSA-biotin solution in PBS and incubated for 24 h at room temperature. Then after aspiration 200 µL/well of 10 µg.mL^-1 of avidin solution in PBS were distributed and incubated for 24 h at room temperature. After washing with NaCl, Tween® 0.005%, 200 µL/well of saturation solution was added (PBS + 2% Sorbitol + 0.5% Glycine + 0.1% BSA + 0.065% NaN3) and incubated for 24 h at 4°C. After an aspiration, the microplates were dried at 20°C in a ventilated room for 12 h, packed with a dessicant and stored at 4°C.
A competitive assay format was used for the M6G-ELISA. 100 µL of biotinylated antibody were added and incubated for 2 h at room temperature under 400 rpm stirring. After incubation, the wells were emptied and 3 wash cycles with H2O + 0.05% Tween® were applied. 50 µL of calibrators, controls and samples were added in duplicate. If necessary, samples were prediluted in dilution buffer (PBS + 0.1% BSA), then 50 µL of M6G-HRP conjugate was distributed in all the wells and incubated for 2h at room temperature, under 400rpm stirring. After a final washing step, 100 µL of HRP substrate (TMB) were added, and incubated for 10 min at room temperature, under 400rpm stirring. The chromogenic reaction was stopped with 100 µL H2SO4 1 N, and the absorbance of each sample was determined at 450 nm and 620 nm (reference wavelength). The results were analyzed using GraphPad Prism Software, model one site competition.
The cross-reactivity of the assay described in example 5 with several compounds that are structurally close to M6G was evaluated. For this purpose, the assay was performed with 50 µL of samples constituted of competing compounds diluted in NBCS at the concentrations of: 1 nM, 10 nM, 100 nM or 1000 nM.

As to `Oc1ccc2c3c1O[C@H]1[C@@H](O)C=C[C@H]4[C@@H](C2)NCC[C@@]341` [normorphine, Normorphine], the Kd is above 1000 nM. Turning to `CN1CC[C@]23c4c5ccc(O[C@@H]6O[C@H](C(=O)O)[C@@H](O)[C@H](O)[C@H]6O)c4O[C@H]2[C@@H](O)C=C[C@H]3[C@H]1C5` [M3G, Morphine-3-glucuronide], the Kd is 670 nM and the “K relative to M6G (X as high as M6G)” value is recorded as “more than 100 X”. Take `COc1ccc2c3c1O[C@H]1[C@@H](O)C=C[C@H]4[C@@H](C2)NCC[C@@]341` [norcodeine, Norcodeine]: the Kd is above 1000 nM. Take `COc1ccc2c3c1O[C@H]1[C@@H](O)C=C[C@H]4[C@@H](C2)N(C)CC[C@@]341` [codeine, Codeine]: the Kd is 220 nM and the “K relative to M6G (X as high as M6G)” value is reported as 35 X. As to `CN1CC[C@]23c4c5ccc(O)c4O[C@H]2[C@@H](O[C@@H]2O[C@H](C(=O)O)[C@@H](O)[C@H](O)[C@H]2O)C=C[C@H]3[C@H]1C5` [M6G, Morphine-6-glucuronide], the Kd was 5.9 nM.

Regarding `CN1CC[C@]23c4c5ccc(O[C@@H]6O[C@H](C(=O)O)[C@@H](O)[C@H](O)[C@H]6O)c4O[C@H]2[C@@H](O[C@@H]2O[C@H](C(=O)O)[C@@H](O)[C@H](O)[C@H]2O)C=C[C@H]3[C@H]1C5` [M3,6G, Morphine-3-6-diglucuronide], the Kd was 3.4 nM.
